Data: publication PMC10974284, “Discovery of Novel 4-Hydroxyquinazoline Derivatives: In Silico, In Vivo and In Vitro Studies Using Primary PARPi-Resistant Cell Lines” (Molecules, 2024)
Read-outs that look alike come from different tables or passages of the source.

Columns and labels:
[1] = tested on: Caspase-3, cleaved Caspase-3, Bax, Bcl-2 in HCC1937 cell lines; test: Western blot of apoptosis-related proteins, HCC1937; assay type: cell-based, human; settings: HCC1937, 1.25-20 μM, 48 h
Procedure: (§1) Subsequently, the cells were lysed with RIPA lysis buffer and protein samples were prepared. Denatured proteins were separated by 10% SDS-PAGE electrophoresis and transferred to a PVDF membrane. The membrane was blocked with 5% blocking solution for 2 h. The membrane was incubated overnight at 4 °C with specific primary antibody. Then, the membrane was rinsed three times with TBST, secondary antibody was added, and the membrane was incubated at room temperature for 2 h. Finally, the target protein was detected by the ECL detection system. The relative expression was quantified using Image J (National Institutes of Health).

[2] = tested on: PAR formation in HCT-15 cell lines; test: Immunofluorescence analysis of PAR, H2O2-treated HCT-15; assay type: cell-based, human
Procedure: (§2) The cells were seeded in 6-well plates with 1 × 10^5 cells per well and incubated for 24 h. […] Cells were fixed with addition of 4% paraformaldehyde, and immunostaining blocking solution was added at room temperature for 20 min. […] Then, a […] staining solution (DAPI) was added for staining, the […] staining solution was aspirated, and the well washed 3 times with washing solution. Photographs were taken through a Leica SP8 Laser confocal microscope.

NCM460 = test: MTT cytotoxicity assay, NCM460 normal colonic epithelial cells; assay type: cell-based; settings: NCM460, 72 h; 3 days, human normal colonic epithelial cells
Procedure: (§3) After treatment with target compounds at the different concentrations, MTT was added and the cells were incubated for another 4 h. The IC50 values of the selected compounds were evaluated by the same method. The cells were treated with compounds at different concentrations. The OD values were detected using a microplate reader at 570 nm.

[3] = Acute toxicity study in mice; assay type: in vivo, mouse; settings: single intraperitoneal injection 800 mg/kg, monitored 14 days
Procedure: The mice were administered a single intraperitoneal injection dose of 800 mg/kg and were constantly monitored for 14 days.

[4] = tested on: HCT-15 nude mouse xenograft model; test: In vivo anti-tumor study
Procedure: The tumor volume and mouse body weight were recorded, and the corresponding tissues were analyzed.
All experimental procedures were performed according to the National Institutes of Health guidelines for the use of laboratory animals, and an application was made to the Institutional Animal Care and Use Committee, Shandong Second Medical University, which was approved. […] When the tumor volume reached about 80–150 mm^3, the mice were randomly divided into three groups (the control group, and different concentration administration group) and administered for 14 consecutive days, while the tumor volume was measured once every two days and the body weight of the mice was recorded. At the end stage, mice were killed by neck-breaking and tumor tissues were removed. All the photographs were taken through a Leica SP8 Laser confocal microscope.

HCC1937 cell lines [5] = test: Cell apoptosis assay (Annexin V-FITC/PI flow cytometry), HCC1937; assay type: cell-based, human; settings: HCC1937, 20 μM, 48 h
Procedure: (§4) The cells were seeded in 6-well plates with 1 × 10^5 cells per well and incubated for 24 h. […] The cells were digested, collected, and resuspended in the binding buffer. After adding 5 μL of Annexin V-FITC and 10 μL of propidium iodide (PI), the cells were incubated for 30 min away from light; this was followed by detection using flow cytometry (Beckman Coulter).

LO2 = test: MTT cytotoxicity assay, LO2 normal hepatocytes; assay type: cell-based; settings: L02, 72 h; 3 days, human normal hepatocytes
Procedure: as §3

[6] = tested on: γH2AX in HCT-15 cell lines; test: Immunofluorescence analysis of γH2AX, HCT-15; assay type: cell-based, human; settings: HCT-15, 10 μM
Procedure: as §2

HCT-15 cell lines [7] = test: Mitochondrial membrane potential assay (JC-1), HCT-15; assay type: cell-based, human
Source text: (§5) Cell culture methods were the same as for the cell apoptosis assay.
(§6) The experimental operation was the same as ROS, only replacing the DCFH-DA probe with the JC-1 probe.

HCT-15 cell lines [8] = test: Cell apoptosis assay (Annexin V-FITC/PI flow cytometry), HCT-15; assay type: cell-based, human; settings: HCT-15, 20 μM, 48 h
Procedure: as §4

HCC1937 cell lines [9] = test: MTT cytotoxicity assay, HCC1937; assay type: cell-based, human; settings: Homo sapiens
Procedure: as §3

MDA-MB-231 = test: MTT cytotoxicity assay, MDA-MB-231; assay type: cell-based; settings: Homo sapiens
Procedure: as §3

[10] = tested on: Caspase-3, cleaved Caspase-3, Bax, Bcl-2 in HCT-15 cell lines; test: Western blot of apoptosis-related proteins, HCT-15; assay type: cell-based, human; settings: HCT-15, 1.25-20 μM, 48 h
Procedure: as §1

HCT-15 cell lines [11] = test: MTT cytotoxicity assay, HCT-15; assay type: cell-based, human; settings: Homo sapiens
Procedure: as §3

[12] = tested on: γH2AX in HCC1937 cell lines; test: Immunofluorescence analysis of γH2AX, HCC1937; assay type: cell-based, human; settings: HCC1937, 10 μM
Procedure: as §2

[13] = tested on: PAR formation in HCC1937 cell lines; test: Immunofluorescence analysis of PAR, H2O2-treated HCC1937; assay type: cell-based, human
Procedure: as §2

HCC1937 cell lines [14] = test: Mitochondrial membrane potential assay (JC-1), HCC1937; assay type: cell-based, human
Source text: as §5, §6

PARP1 = molecular target: T1, PARP1 (Homo sapiens, UniProt P09874); test: PARP1 enzyme inhibition assay (commercial kit); assay type: biochemical
T1 construct: purchased Sigma-Aldrich 17-10149
T1 sequence (P09874 whole entry): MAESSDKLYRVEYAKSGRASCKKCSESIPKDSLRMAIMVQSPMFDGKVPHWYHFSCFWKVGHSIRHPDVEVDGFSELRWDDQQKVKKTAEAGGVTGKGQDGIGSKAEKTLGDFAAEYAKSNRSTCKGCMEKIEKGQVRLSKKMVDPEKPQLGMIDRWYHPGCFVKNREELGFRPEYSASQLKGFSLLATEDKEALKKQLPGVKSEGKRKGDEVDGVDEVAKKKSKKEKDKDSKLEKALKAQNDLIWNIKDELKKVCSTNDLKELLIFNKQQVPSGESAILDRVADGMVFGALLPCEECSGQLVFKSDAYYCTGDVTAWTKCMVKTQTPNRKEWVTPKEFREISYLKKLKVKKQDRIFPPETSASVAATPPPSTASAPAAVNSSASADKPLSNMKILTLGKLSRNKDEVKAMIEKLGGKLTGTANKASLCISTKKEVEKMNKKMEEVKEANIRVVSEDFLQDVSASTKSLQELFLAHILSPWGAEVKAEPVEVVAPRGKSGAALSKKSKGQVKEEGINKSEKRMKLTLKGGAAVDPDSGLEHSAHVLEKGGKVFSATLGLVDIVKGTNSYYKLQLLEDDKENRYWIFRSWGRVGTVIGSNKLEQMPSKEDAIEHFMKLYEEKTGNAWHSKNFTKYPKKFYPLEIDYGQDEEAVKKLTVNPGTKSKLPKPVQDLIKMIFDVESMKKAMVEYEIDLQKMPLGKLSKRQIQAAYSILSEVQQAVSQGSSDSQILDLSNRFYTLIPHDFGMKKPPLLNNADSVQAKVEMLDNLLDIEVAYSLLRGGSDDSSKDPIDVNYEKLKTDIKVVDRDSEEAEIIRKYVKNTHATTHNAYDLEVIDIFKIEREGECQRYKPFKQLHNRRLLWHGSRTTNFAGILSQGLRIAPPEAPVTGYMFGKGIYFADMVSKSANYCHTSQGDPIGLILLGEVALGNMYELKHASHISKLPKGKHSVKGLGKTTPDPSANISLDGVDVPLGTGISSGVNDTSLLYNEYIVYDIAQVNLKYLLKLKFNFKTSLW

[15] = HCC1937, 72 h (3-Days) drug exposure, MTT, read-out: IC50 HCC1937
[16] = HCT-15, 72 h (3-Days) drug exposure, MTT, read-out: IC50 HCT-15

Cc1ccc(Cl)cc1NC(=O)N1C2CC1CN(Cc1nc3ccccc3c(=O)[nH]1)C2 [B1, N-(5-chloro-2-methylphenyl)-3-((4-oxo-3,4-dihydroquinazolin-2-yl)methyl)-3,6-diazabicyclo[3.1.1]heptane-6-carboxamide]
Bax expression [1]: considerably increased Bax expression
Bcl-2 expression [1]: decreased Bcl-2 expression
Caspase-3 activation [1]: activated Caspase-3
PAR aggregation (green fluorescence) ([2]; H2O2-treated HCT-15, 1.25 μM): green fluorescence obviously weakened
PAR aggregation (green fluorescence) ([2]; H2O2-treated HCT-15, 5 μM): green fluorescence almost disappeared
IC50 (NCM460): > 100 µM
body weight, acute toxicity [3]: no significant reduction in body weight
major organs (H&E), acute toxicity [3]: no significant changes in heart, liver, spleen, lung, or kidney
tumor cell morphology (H&E) ([4]; 10 mg/kg intraperitoneally once daily for 14 days): irregular morphological alterations and severe vacuolization
xenograft tumor growth (tumor volume and weight) ([4]; 25 mg/kg intraperitoneally once daily for 14 days): significantly inhibited xenograft tumor growth
xenograft tumor growth (tumor volume and weight) ([4]; 50 mg/kg intraperitoneally once daily for 14 days): significantly inhibited xenograft tumor growth
apoptosis rate (HCC1937 cell lines [5]): 53.14%
IC50 (LO2): > 100 µM
expression of γH2AX [6]: significantly increased
mitochondrial membrane potential (JC-1 fluorescence) (HCT-15 cell lines [7]; HCT-15, 5 μM): green fluorescence began to change significantly
mitochondrial membrane potential (JC-1 fluorescence) (HCT-15 cell lines [7]; HCT-15, 20 μM): the intensity of red fluorescence was hardly visible
apoptosis rate (HCT-15 cell lines [8]): 73.58%
IC50 (HCC1937 cell lines [9]; [15]): 3.26 ± 0.38 µM
IC50 (HCC1937 cell lines [9]; HCC1937, 7 days drug treatment, read-out: IC50 HCC1937 7-Days): 0.17 ± 0.04 µM
IC50 (MDA-MB-231; MDA-MB-231, 72 h, 3 days, read-out: IC50 MDA-MB-231 3-Days): 11.3 ± 1.93 µM
IC50 (MDA-MB-231; MDA-MB-231, 7 days, read-out: IC50 MDA-MB-231 7-Days): 1.33 ± 0.51 µM
Bax expression [10]: considerably increased Bax expression
Bcl-2 expression [10]: decreased Bcl-2 expression
Caspase-3 activation [10]: activated Caspase-3
IC50 (HCT-15 cell lines [11]; [16]): 2.89 ± 0.78 µM
IC50 (HCT-15 cell lines [11]; HCT-15, 7 days drug treatment, read-out: IC50 HCT-15 7-Days): 0.13 ± 0.03 µM
expression of γH2AX [12]: significantly increased
PAR aggregation (green fluorescence) ([13]; H2O2-treated HCC1937, 1.25 μM): green fluorescence obviously weakened
PAR aggregation (green fluorescence) ([13]; H2O2-treated HCC1937, 5 μM): green fluorescence almost disappeared
mitochondrial membrane potential (JC-1 fluorescence) (HCC1937 cell lines [14]; HCC1937, 5 μM): green fluorescence began to change significantly
mitochondrial membrane potential (JC-1 fluorescence) (HCC1937 cell lines [14]; HCC1937, 20 μM): the intensity of red fluorescence was hardly visible

O=C(Nc1ccc(F)cc1F)N1CCN(Cc2nc3ccccc3c(=O)[nH]2)CC1 [IN17]
inhibition at 50 µM (HCC1937 cell lines [9]; HCC1937, 50 μM, 72 h, MTT, read-out: Inhibition rate (%) HCC1937): 60.6%
IC50 (HCC1937 cell lines [9]; [15]): 34.3 ± 2.68 µM
inhibition at 50 µM (HCT-15 cell lines [11]; HCT-15, 50 μM, 72 h, MTT, read-out: Inhibition rate (%) HCT-15): 63.3%
IC50 (HCT-15 cell lines [11]; [16]): 33.5 ± 1.79 µM
IC50 (PARP1): 0.4713 ± 0.00318 µM
inhibition at 0.5 µM (PARP1; 0.5 μM, read-out: Inhibition rate (%) PARP1): 53.1%
IC50 (PARP1; as printed in the text): 0.47 ± 0.0032 µM

O=C(Nc1ccc(C(F)(F)F)cc1)N1CCN(Cc2nc3ccccc3c(=O)[nH]2)CC1 [A15, 4-((4-oxo-3,4-dihydroquinazolin-2-yl)methyl)-N-(4-(trifluoromethyl)phenyl)piperazine-1-carboxamide]
melting point: 198.8 to 200.6 °C
IC50 (HCC1937 cell lines [9]; [15]): > 50 µM
IC50 (HCT-15 cell lines [11]; [16]): 15.6 ± 0.56 µM

COc1cccc(NC(=O)N2CCN(Cc3nc4ccccc4c(=O)[nH]3)CC2)c1 [A17, N-(3-methoxyphenyl)-4-((4-oxo-3,4-dihydroquinazolin-2-yl)methyl)piperazine-1-carboxamide]
melting point: 186.3 to 188.5 °C
IC50 (HCC1937 cell lines [9]; [15]): > 50 µM
IC50 (HCT-15 cell lines [11]; [16]): > 50 µM

Cc1ccc(Cl)cc1NC(=O)N1C2CC1CN(Cc1nc3cc(Cl)ccc3c(=O)[nH]1)C2 [C2, N-(5-chloro-2-methylphenyl)-3-((7-chloro-4-oxo-3,4-dihydroquinazolin-2-yl)methyl)-3,6-diazabicyclo[3.1.1]heptane-6-carboxamide]
melting point: 192.3 to 194.1 °C
IC50 (HCC1937 cell lines [9]; HCC1937, 72 h, read-out: IC50 HCC1937): 32.4 ± 2.66 µM
IC50 (HCT-15 cell lines [11]; HCT-15, 72 h, read-out: IC50 HCT-15): 23 ± 1.93 µM
